Assay results as given in ChEMBL document CHEMBL1201861, “Genomics of Drug Sensitity in Cancer screening data, Wellcome Trust Sanger Institute”.
pIC50: −log10 of the molar value. Where “and” joins values, the source holds several entries; their conditions need not be identical. Equal values may be shown once. Where a SMILES comes first, the peptide text is derived from it. The star is where a group is joined. Cbz = O=C(OCc1ccccc1)*

Experiments:
LC-1F = test: cells; type: functional, cell-based, Homo sapiens;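 also: growth inhibition of human LC-1F cells, read out with a cell viability assay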
Description: SANGER: Inhibition of human LC-1F cell growth in a cell viability assay.

NCI-H1417 = test: cells; type: functional, cell-based, Homo sapiens;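 also: human NCI-H1417 cells, growth inhibition determined with a cell viability readout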
Description: SANGER: Inhibition of human NCI-H1417 cell growth in a cell viability assay.

NCI-H1882 = test: cells; type: functional, cell-based, Homo sapiens;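 also: growth inhibition of the cell line, determined with a viability assay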
Description: SANGER: Inhibition of human NCI-H1882 cell growth in a cell viability assay.

IST-SL2 = test: cells; type: functional, cell-based, Homo sapiens;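 also: growth inhibition of human IST-SL2 cells, read out by a cell viability assay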
Description: SANGER: Inhibition of human IST-SL2 cell growth in a cell viability assay.

CPC-N = test: cells; type: functional, cell-based, Homo sapiens;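 also: growth inhibition of CPC-N cells, with a cell viability assay as the readout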
Description: SANGER: Inhibition of human CPC-N cell growth in a cell viability assay.

NCI-H2196 = test: cells; type: functional, cell-based, Homo sapiens;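 also: cell viability assay used as the readout of growth inhibition in NCI-H2196 cells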
Description: SANGER: Inhibition of human NCI-H2196 cell growth in a cell viability assay.

MFH-ino = test: cells; type: functional, cell-based, Homo sapiens;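 also: growth inhibition of human MFH-ino cells, read out by a cell viability assay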
Description: SANGER: Inhibition of human MFH-ino cell growth in a cell viability assay.

DMS-79 = test: cells; type: functional, cell-based, Homo sapiens
Description: SANGER: Inhibition of human DMS-79 cell growth in a cell viability assay.

SK-MM-2 = test: cells; type: functional, cell-based, Homo sapiens;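 also: growth inhibition of human SK-MM-2 cells, read out with a cell viability assay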
Description: SANGER: Inhibition of human SK-MM-2 cell growth in a cell viability assay.

EW-22 = test: cells; type: functional, cell-based; settings: Homo sapiens;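 also: growth inhibition of the EW-22 cell line, measured with a cell viability readout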
Description: SANGER: Inhibition of human EW-22 cell growth in a cell viability assay.

MONO-MAC-6 = test: cells; type: functional, cell-based, Homo sapiens;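 also: cell viability assay measuring growth inhibition of human MONO-MAC-6 cells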
Description: SANGER: Inhibition of human MONO-MAC-6 cell growth in a cell viability assay.

SCC-3 = test: cells; type: functional, cell-based, Homo sapiens;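 also: cell viability assay measuring inhibition of SCC-3 cell growth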
Description: SANGER: Inhibition of human SCC-3 cell growth in a cell viability assay.

EB2 = test: cells; type: functional, cell-based, Homo sapiens;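 also: growth inhibition of EB2 cells, read out with a cell viability assay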
Description: SANGER: Inhibition of human EB2 cell growth in a cell viability assay.

WSU-NHL = test: cells; type: functional, cell-based, Homo sapiens;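 also: growth inhibition of human WSU-NHL cells, read out with a cell viability assay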
Description: SANGER: Inhibition of human WSU-NHL cell growth in a cell viability assay.

DG-75 = test: cells; type: functional, cell-based, Homo sapiens;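 also: growth inhibition of DG-75 cells, read out with a cell viability assay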
Description: SANGER: Inhibition of human DG-75 cell growth in a cell viability assay.

YT = test: cells; type: functional, cell-based, Homo sapiens
Description: SANGER: Inhibition of human YT cell growth in a cell viability assay.

COR-L279 = test: SANGER: Inhibition of human COR-L279 cell growth in a cell viability assay.; type: functional, cell-based
SJRH30 = test: cells; type: functional, cell-based; settings: Homo sapiens;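 also: growth inhibition of human SJRH30 cells, read out with a cell viability assay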
Description: SANGER: Inhibition of human SJRH30 cell growth in a cell viability assay.

HEC-1 = test: cells; type: functional, cell-based; settings: Homo sapiens;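 also: growth inhibition of the cell line, read out with a cell viability assay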
Description: SANGER: Inhibition of human HEC-1 cell growth in a cell viability assay.

HSC-3 = test: cells; type: functional, cell-based; settings: Homo sapiens
Description: SANGER: Inhibition of human HSC-3 cell growth in a cell viability assay.

HSC-4 = test: cells; type: functional, cell-based; settings: Homo sapiens;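 also: growth inhibition of human HSC-4 cells, read out with a cell viability assay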
Description: SANGER: Inhibition of human HSC-4 cell growth in a cell viability assay.

[1] = Homo sapiens, NCI-H2196, read-out: IC50

Row | Structure (SMILES) | pIC50 (LC-1F; Homo sapiens, LC-1F) | pIC50 (NCI-H1417; Homo sapiens, NCI-H1417) | pIC50 (NCI-H1882; Homo sapiens, NCI-H1882) | pIC50 (IST-SL2; Homo sapiens, IST-SL2) | pIC50 (CPC-N; Homo sapiens, CPC-N) | pIC50 (NCI-H2196; [1]) | pIC50 (MFH-ino; Homo sapiens, MFH-ino) | pIC50 (DMS-79; Homo sapiens, DMS-79) | pIC50 (SK-MM-2; Homo sapiens, SK-MM-2) | pIC50 (EW-22) | pIC50 (MONO-MAC-6; Homo sapiens, MONO-MAC-6) | pIC50 (SCC-3; Homo sapiens, SCC-3) | pIC50 (EB2; Homo sapiens, EB2) | pIC50 (WSU-NHL; Homo sapiens, WSU-NHL) | pIC50 (DG-75; Homo sapiens, DG-75) | pIC50 (YT; Homo sapiens, YT) | pIC50 (COR-L279; Homo sapiens, COR-L279) | further results
1 | Nc1ccccc1NC(=O)c1ccc(CNC(=O)OCc2cccnc2)cc1 [ENTINOSTAT] | 5.95 | 6.89 | 5.57 | 5.70 | 6.09 | 5.39 | 5.46 | 5.59 | 6.40 | < 5.30 | 6.41 | 7.21 | < 5.30 | < 5.30 | 5.64 | < 5.30 | 6.15 | –
2 | Cc1ccc(NC(=O)c2ccc(CN3CCN(C)CC3)cc2)cc1Nc1nccc(-c2cccnc2)n1 [IMATINIB] | < 5.70 | < 5.70 | < 5.70 | < 5.70 | < 5.70 | – | < 5.70 | < 5.70 | < 5.70 | < 5.70 | < 5.70 | < 5.70 | < 5.70 | < 5.70 | < 5.70 | < 5.70 | < 5.70 | pIC50 (NCI-H2196; Homo sapiens, NCI-H2196): < 5.70
3 | CC(C)C[C@@H](C=O)NC(=O)[C@H](CC(C)C)NC(=O)[C@H](CC(C)C)NC(=O)OCc1ccccc1 [MG-132] (Cbz-Leu-Leu-Leu-aldehyde) | – | – | – | – | – | < 6.00 | – | – | – | < 6.00 | 6.27 | < 6.00 | – | – | < 6.00 | – | – | pIC50 (LC-1F; lc-1f): < 6.00; pIC50 (NCI-H1417; nci-h1417): < 6.00; pIC50 (NCI-H1882; nci-h1882): 6.23 and < 6.00; pIC50 (IST-SL2; ist-sl2): < 6.00; pIC50 (CPC-N; cpc-n): < 6.00; pIC50 (NCI-H2196; nci-h2196, read-out: IC50): < 6.00; pIC50 (MFH-ino; mfh-ino): < 6.00 and 6.95; pIC50 (DMS-79; dms-79): < 6.00; pIC50 (SK-MM-2; sk-mm-2): < 6.00; pIC50 (MONO-MAC-6; mono-mac-6): 6.14; pIC50 (SCC-3; scc-3): < 6.00; pIC50 (EB2; eb2): < 6.00; pIC50 (WSU-NHL; wsu-nhl): < 6.00; pIC50 (DG-75; dg-75): < 6.00; pIC50 (YT; yt): < 6.00; pIC50 (COR-L279; cor-l279): < 6.00
4 | CO[C@@H]1[C@H](N(C)C(=O)c2ccccc2)C[C@H]2O[C@]1(C)n1c3ccccc3c3c4c(c5c6ccccc6n2c5c31)C(=O)NC4 [MIDOSTAURIN] | – | – | – | – | – | – | – | – | – | – | – | – | – | – | – | – | < 6.29 | pIC50 (SJRH30): < 6.29; pIC50 (HEC-1): < 6.29; pIC50 (HSC-3): < 6.29; pIC50 (HSC-4): < 6.29
5 | COc1cc(N2CCC(N3CCN(C)CC3)CC2)ccc1Nc1ncc(Cl)c(Nc2ccccc2S(=O)(=O)C(C)C)n1 [TAE-684] | < 5.70 | < 5.70 | 5.91 | < 5.70 | 5.73 | < 5.70 | 6.49 | < 5.70 | 6.38 | < 5.70 | 6.48 | > 8.11 | < 5.70 | < 5.70 | < 5.70 | < 5.70 | < 5.70 | –
